Positions count from the first letter of the chain named.
tested on: not listed separately; assay: Metabolism test of drugs: plasma pharmacokinetics after intravenous and intragastric administration; format: in vivo; details: male, rat; SD rats, PO, 10 mg/kg, plasma
Method: Four small molecule compounds of BLU-667, compound C2, compound C4 and compound C8 were administered to SD rats by intravenous and intragastric administration respectively. Blood samples were collected at different time points to determine the concentration of drugs in plasma after administration and calculate the related pharmacokinetics parameters.
The vehicle of BLU-667, C2, C4 and C8 was 10% NMP+49% PEG400+1% Tween80+40% Water. The specific preparation method was as follows: proper amount of tested samples was weighed, dissolved in 10% NMP+49% PEG400+1% Tween80+40% Water, mixed well by vortex for later use.
LC-MS/MS was used by the analysis department of the experimental organization to detect and analyze the prepared solution of sample for test.
Healthy male SD rats were used in this research. Animal weight: 150-200 g. All animals fasted before administration, and resumed feeding 4 hours after administration.
Time points for blood collection were: • Intravenous administration (groups 1, 3 and 5): 0.0833, 0.25, 0.5, 1, 2, 4, 8, 12 and 24 hours after administration. (±2 min at time point ≤2 hr, ±15 min at other points.) • Oral administration: (groups 2, 4, 6 and 7): 0.25, 0.5, 1, 2, 4, 8, 12 and 24 hours after administration. (±2 m at time point […] at other points.)
About 0.1 mL of blood was collected from each animal through jugular vein every time, and EDTA or heparin sodium was used as anticoagulant. Blood samples were collected and placed on ice, and plasma was separated by centrifugation (centrifugation conditions: 5000 r/min, 6 min, 4° C.).
LC-MS/MS was used by the analysis department of the experimental organization to analyze the plasma samples of rats.
According to the data of blood drug concentration of the drug, the pharmacokinetic parameters AUC0→t, AUC0→∞, MRT0→∞, CMax, TMax, Vss, F, CL and T1/2 as well as their mean and standard deviation of the samples for test were calculated respectively by pharmacokinetic calculation software WinNonlin non-compartment model.
The main pharmacokinetic parameters of BLU-667, compound C2, compound C4 and compound C8 in plasma after intravenous and single oral administration of BLU-667, compound C2, compound C4 and compound C8 in SD rats were shown in Table 3

Compound	AUC(0-inf) [ng·h/mL]	AUC(0-t) [ng·h/mL]	Cmax [ng/mL]	Tmax [h]	half-life [h]
COC1(C(=O)N[C@@H](C)c2ccc(-n3cc(F)cn3)nc2)CC=C(c2nc(Nc3cc(C)[nH]n3)cc3cccnc23)CC1 (stereo partly shown) [Compound C8]	2830	2800	824	2	1.95

same assay, conditions: male, rat; SD rats, PO, 10 mg/kg, plasma; read-out: MRTINF_ obs

Compound	MRT [h]
COC1(C(=O)N[C@@H](C)c2ccc(-n3cc(F)cn3)nc2)CC=C(c2nc(Nc3cc(C)[nH]n3)cc3cccnc23)CC1 (stereo partly shown) [Compound C8]	2.85

molecular target: wild-type RET kinase (Homo sapiens, UniProt P07949); assay: Enzyme activity test against wild-type RET kinase (33P-ATP filter-binding kinase activity assay); format: biochemical; details: ATP Km concentration, 10 concentrations
Method: A biological activity test experiment was conducted below for some compounds of the above Examples and Comparative Example.
[…]. The biological activity screening of the compounds will be determined repeatedly at 10 concentrations.
Each sample was prepared into a solution with a concentration of 10 mM.
The test compound was dissolved in 100% dimethyl sulfoxide to a specific concentration. Integra Viaflo Assist was used to assist DMSO for (continuous) dilution.
Kinase was added to the newly prepared basic reaction buffer
Adding any desired cofactors to the substrate solution.
Adding wild-type RET kinase into the substrate solution and gently mixing;
Acoustic technology (Echo 550; Nanoliter range) was used to feed the compounds in 100% of dimethyl sulfoxide into the kinase reaction mixture and incubated at room temperature for 20 minutes.
33P-ATP (specific activity 10 Ci/l) was added to the reaction mixture to start the reaction.
Incubated at room temperature for 2 hours
Radioactivity was detected by filter-binding method.
Kinase activity data was expressed as the percentage of remaining kinase activity in the test sample compared to the vehicle (dimethyl sulfoxide) reaction. Prism (GRAPHPAD software) was used to obtain IC50 value and curve-fitting.

wild-type RET kinase, sequence (P07949 29-1114): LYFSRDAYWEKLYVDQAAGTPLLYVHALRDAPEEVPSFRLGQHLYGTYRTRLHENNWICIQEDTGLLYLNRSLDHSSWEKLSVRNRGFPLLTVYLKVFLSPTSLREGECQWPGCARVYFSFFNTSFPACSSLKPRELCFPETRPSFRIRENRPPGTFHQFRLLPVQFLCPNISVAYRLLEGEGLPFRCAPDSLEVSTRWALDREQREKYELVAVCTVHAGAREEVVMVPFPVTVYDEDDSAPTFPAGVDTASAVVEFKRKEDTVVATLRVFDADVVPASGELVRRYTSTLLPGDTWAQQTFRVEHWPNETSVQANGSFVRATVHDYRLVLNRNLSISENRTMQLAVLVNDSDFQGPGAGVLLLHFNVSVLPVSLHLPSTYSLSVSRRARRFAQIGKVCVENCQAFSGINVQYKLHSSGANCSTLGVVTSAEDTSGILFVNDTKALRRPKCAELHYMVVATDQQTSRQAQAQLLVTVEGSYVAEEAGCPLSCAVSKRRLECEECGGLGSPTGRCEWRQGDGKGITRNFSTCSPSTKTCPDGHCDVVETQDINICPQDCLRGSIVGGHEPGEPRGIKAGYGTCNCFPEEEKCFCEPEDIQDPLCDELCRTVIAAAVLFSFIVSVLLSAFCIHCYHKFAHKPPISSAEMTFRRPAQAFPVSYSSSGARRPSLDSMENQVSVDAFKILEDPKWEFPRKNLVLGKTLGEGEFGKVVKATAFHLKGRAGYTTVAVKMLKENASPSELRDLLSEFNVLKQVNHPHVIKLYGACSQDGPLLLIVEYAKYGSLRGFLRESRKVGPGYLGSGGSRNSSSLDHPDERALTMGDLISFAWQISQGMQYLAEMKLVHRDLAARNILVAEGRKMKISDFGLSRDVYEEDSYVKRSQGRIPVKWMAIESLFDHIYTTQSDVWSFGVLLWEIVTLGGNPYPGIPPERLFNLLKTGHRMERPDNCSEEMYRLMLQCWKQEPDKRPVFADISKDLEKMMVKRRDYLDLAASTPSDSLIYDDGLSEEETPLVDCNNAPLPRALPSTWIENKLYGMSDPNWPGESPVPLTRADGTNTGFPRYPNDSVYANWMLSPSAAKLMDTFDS

Compound	Wild-RET IC50	IC50 [nM]
COC1(C(=O)N[C@@H](C)c2ccc(-n3cc(F)cn3)nc2)CC=C(c2ccc(C#N)c(Nc3cc(C)[nH]n3)n2)CC1 (stereo partly shown) [Comparative Example C32, reference compound]	no activity	–
CO[C@]1(C(=O)N[C@@H](C)c2ccc(-n3cc(F)cn3)nc2)CC[C@@H](c2nc(Nc3cc(C)[nH]n3)ccc2C#N)CC1 [Compound C1]	–	146
CO[C@]1(C(=O)N[C@@H](C)c2ccc(-n3cc(F)cn3)nc2)CC[C@@H](c2nc(Nc3cc(C)[nH]n3)cc3cccnc32)CC1 [Compound C3]	–	241
CO[C@]1(C(=O)N[C@@H](C)c2ccc(-n3cc(F)cn3)nc2)CC[C@@H](c2nc(Nc3cc(C)[nH]n3)cc3c2N(C)CCC3)CC1 [Compound C5]	–	100
CO[C@]1(C(=O)N[C@@H](C)c2ccc(-n3cc(F)cn3)nc2)CC[C@H](c2nc(Nc3cc(C)[nH]n3)cc3c2N(C)CCC3)CC1 [Compound C6]	–	3.53
COC1(C(=O)N[C@@H](C)c2ccc(-n3cc(F)cn3)nc2)CC=C(c2nc(Nc3cc(C)[nH]n3)ccc2C#N)CC1 (stereo partly shown) [Compound C7]	–	5.34
COC1(C(=O)N[C@@H](C)c2ccc(-n3cc(F)cn3)nc2)CC=C(c2nc(Nc3cc(C)[nH]n3)cc3cccnc23)CC1 (stereo partly shown) [Compound C8]	–	1.53
CO[C@]1(C(=O)N[C@@H](C)c2ccc(-n3cc(F)cn3)nc2)CC[C@H](c2nc(Nc3cc(C)[nH]n3)c(F)cc2C#N)CC1 [Compound C9]	–	3.38
CO[C@]1(C(=O)N[C@@H](C)c2ccc(-n3cc(F)cn3)nc2)CC[C@@H](c2nc(Nc3cc(C)[nH]n3)c(F)cc2C#N)CC1 [Compound C10]	–	262
COC1(C(=O)N[C@@H](C)c2ccc(-n3cc(F)cn3)nc2)CC=C(c2nc(Nc3cc(C)[nH]n3)c(F)cc2C#N)CC1 (stereo partly shown) [Compound C11]	–	17.4
COC1(C(=O)N[C@@H](C)c2ccc(-n3cc(F)cn3)nc2)CC=C(c2nc(Nc3cc(C)[nH]n3)cnc2C#N)CC1 (stereo partly shown) [Compound C12]	–	16.1
CO[C@]1(C(=O)N[C@@H](C)c2ccc(-n3cc(F)cn3)nc2)CC[C@H](c2nc(Nc3cc(C)[nH]n3)cnc2C#N)CC1 [Compound C13]	–	2.08
CO[C@]1(C(=O)N[C@@H](C)c2ccc(-n3cc(F)cn3)nc2)CC[C@@H](c2nc(Nc3cc(C)[nH]n3)cc(C)c2C#N)CC1 [Compound C16]	–	180
CO[C@]1(C(=O)N[C@@H](C)c2ccc(-n3cc(F)cn3)nc2)CC[C@H](c2nc(Nc3cc(C)[nH]n3)cc(C)c2C#N)CC1 [Compound C17]	–	1.26
CO[C@]1(C(=O)N[C@@H](C)c2ccc(-n3cc(F)cn3)nc2)CC[C@H](c2nc(Nc3cc(C)[nH]n3)cc3c2C(=O)NCC3)CC1 [Compound C18]	–	1.52
CO[C@]1(C(=O)N[C@@H](C)c2ccc(-n3cc(F)cn3)nc2)CC[C@@H](c2nc(Nc3cc(C)[nH]n3)cc3c2C(=O)NCC3)CC1 [Compound C19]	–	64.7

molecular target: T1, Ba/F3-KIF5B-RET cells (Homo sapiens, UniProt P07949); assay: Cell anti-proliferation experiment (CellTiter-Glo), Ba/F3-KIF5B-RET; format: cell-based; details: cell viability, 72 h
T1 construct: host or cells: Ba/F3 (BaF3 from RIKEN BRC CELL BANK); the other entry of the earlier key: KIF5B (P33176, Kinesin-1 heavy chain)
T1 sequence (P07949 713-1063 limits assumed): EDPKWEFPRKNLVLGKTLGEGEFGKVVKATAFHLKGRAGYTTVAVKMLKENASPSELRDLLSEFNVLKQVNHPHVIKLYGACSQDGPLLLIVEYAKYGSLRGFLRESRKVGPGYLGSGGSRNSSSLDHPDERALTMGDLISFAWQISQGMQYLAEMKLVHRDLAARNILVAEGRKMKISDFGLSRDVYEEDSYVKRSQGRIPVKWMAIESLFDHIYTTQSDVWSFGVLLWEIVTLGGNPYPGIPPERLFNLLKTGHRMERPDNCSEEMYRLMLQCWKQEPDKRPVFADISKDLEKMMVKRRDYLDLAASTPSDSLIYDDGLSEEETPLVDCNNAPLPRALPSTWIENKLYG
Method: (§1) Ba/F3-KIF5B-RET, Ba/F3-KIF5B-RET-V804L and Ba/F3-KIF5B-RET-V804M cells were constructed by PreceDo Pharmaceuticals Co., Ltd.
(§2) Ba/F3-KIF5B-RET, Ba/F3-KIF5B-RET-V804L and Ba/F3-KIF5B-RET-V804M medium: RPMI-1640+10% FBS+1% P/S.
(§3) A 1000× solution of the compound was prepared with DMSO, the compound was diluted to 20 times final concentration with a growth medium, and […] was added.
(§4) The suspended cells were rotated downward, resuscitated in the growth medium, and then counted with a cell counter. The cell suspension was diluted to the desired concentration in the growth medium. 95p L cell suspension was fed to a 96-well plate. 5 μL of 20× compound was added to the […], and the final DMSO concentration per well was 0.1%; incubated at 37° C. with 5% CO2 for 72 h
(§5) The plate was equilibrated to room temperature before measurement, 50 μl of CellTiter-Glo® reagent was added into each well, mixed on a shaker for 2 minutes, incubated at room temperature for 10 minutes, and recorded with Paradigm.
(§6) Cell viability was analyzed using Graphpad 7.0 software according to the formula Cell viability (CV %)=(RLU compound−RLU blank)/(RLU control−RLU blank)*100%, and the corresponding IC50 data were calculated as shown in Table 2

Compound	IC50 [nM]
CO[C@]1(C(=O)N[C@@H](C)c2ccc(-n3cc(F)cn3)nc2)CC[C@H](c2nc(Nc3cc(C)[nH]n3)cc3nccnc32)CC1 [Compound C14]	54.1
CO[C@]1(C(=O)N[C@@H](C)c2ccc(-n3cc(F)cn3)nc2)CC[C@H](c2nc(Nc3cc(C)[nH]n3)c3ccccc3n2)CC1 [Compound C15]	4.6
CO[C@]1(C(=O)N[C@@H](C)c2ccc(-n3cnc(Cl)n3)nc2)CC[C@H](c2nc(Nc3cc(C)[nH]n3)cc3cccnc32)CC1 [Compound C24]	95.1
CO[C@]1(C(=O)N[C@@H](C)c2cnc(-n3cc(F)cn3)cn2)CC[C@H](c2nc(Nc3cc(C)[nH]n3)cc3cccnc32)CC1 [Compound C26]	5.2
CO[C@]1(C(=O)N[C@@H](C)c2ccc(-n3cc(F)cn3)nn2)CC[C@H](c2nc(Nc3cc(C)[nH]n3)cc3cccnc32)CC1 [Compound C27]	29.4
CO[C@]1(C(=O)N[C@@H](C)c2ccc(-n3cnc(C)n3)nc2)CC[C@H](c2nc(Nc3cc(C)[nH]n3)cc3cccnc32)CC1 [Compound C29]	146

molecular target: T2, Ba/F3-KIF5B-RET-V804L cells (Homo sapiens, UniProt P07949, V804L); assay: Cell anti-proliferation experiment (CellTiter-Glo), Ba/F3-KIF5B-RET-V804L; format: cell-based; details: cell viability, 72 h
T2 construct: host or cells: Ba/F3 (BaF3 from RIKEN BRC CELL BANK); the other entry of the earlier key: KIF5B (P33176, Kinesin-1 heavy chain)
T2 sequence (P07949 713-1063 V804L limits assumed): T1 sequence (P07949 713-1063 limits assumed) with V92L
Method: as §1, §2, §3, §4, §5, §6

Compound	IC50 [nM]
CO[C@]1(C(=O)N[C@@H](C)c2ccc(-n3cc(F)cn3)nc2)CC[C@H](c2nc(Nc3cc(C)[nH]n3)cc3nccnc32)CC1 [Compound C14]	46.8
CO[C@]1(C(=O)N[C@@H](C)c2ccc(-n3cc(F)cn3)nc2)CC[C@H](c2nc(Nc3cc(C)[nH]n3)c3ccccc3n2)CC1 [Compound C15]	2.8
CO[C@]1(C(=O)N[C@@H](C)c2ccc(-n3cnc(Cl)n3)nc2)CC[C@H](c2nc(Nc3cc(C)[nH]n3)cc3cccnc32)CC1 [Compound C24]	84
CO[C@]1(C(=O)N[C@@H](C)c2cnc(-n3cc(F)cn3)cn2)CC[C@H](c2nc(Nc3cc(C)[nH]n3)cc3cccnc32)CC1 [Compound C26]	2.9
CO[C@]1(C(=O)N[C@@H](C)c2ccc(-n3cc(F)cn3)nn2)CC[C@H](c2nc(Nc3cc(C)[nH]n3)cc3cccnc32)CC1 [Compound C27]	23
CO[C@]1(C(=O)N[C@@H](C)c2ccc(-n3cnc(C)n3)nc2)CC[C@H](c2nc(Nc3cc(C)[nH]n3)cc3cccnc32)CC1 [Compound C29]	118

molecular target: T3, Ba/F3-KIF5B-RET-V804M cells (Homo sapiens, UniProt P07949, V804M); assay: Cell anti-proliferation experiment (CellTiter-Glo), Ba/F3-KIF5B-RET-V804M; format: cell-based; details: cell viability, 72 h
T3 construct: host or cells: Ba/F3 (BaF3 from RIKEN BRC CELL BANK); the other entry of the earlier key: KIF5B (P33176, Kinesin-1 heavy chain)
T3 sequence (P07949 713-1063 V804M limits assumed): T1 sequence (P07949 713-1063 limits assumed) with V92M
Method: as §1, §2, §3, §4, §5, §6

Compound	IC50 [nM]
CO[C@]1(C(=O)N[C@@H](C)c2ccc(-n3cc(F)cn3)nc2)CC[C@H](c2nc(Nc3cc(C)[nH]n3)cc3nccnc32)CC1 [Compound C14]	109
CO[C@]1(C(=O)N[C@@H](C)c2ccc(-n3cc(F)cn3)nc2)CC[C@H](c2nc(Nc3cc(C)[nH]n3)c3ccccc3n2)CC1 [Compound C15]	7.4
CO[C@]1(C(=O)N[C@@H](C)c2ccc(-n3cnc(Cl)n3)nc2)CC[C@H](c2nc(Nc3cc(C)[nH]n3)cc3cccnc32)CC1 [Compound C24]	182
CO[C@]1(C(=O)N[C@@H](C)c2cnc(-n3cc(F)cn3)cn2)CC[C@H](c2nc(Nc3cc(C)[nH]n3)cc3cccnc32)CC1 [Compound C26]	7.9
CO[C@]1(C(=O)N[C@@H](C)c2ccc(-n3cc(F)cn3)nn2)CC[C@H](c2nc(Nc3cc(C)[nH]n3)cc3cccnc32)CC1 [Compound C27]	51.9
CO[C@]1(C(=O)N[C@@H](C)c2ccc(-n3cnc(C)n3)nc2)CC[C@H](c2nc(Nc3cc(C)[nH]n3)cc3cccnc32)CC1 [Compound C29]	252
